Structures are written as SMILES.

The target of the experiment is D(3) dopamine receptor (Homo sapiens, UniProt P35462).
Sequence of D(3) dopamine receptor (P35462 as listed by the source): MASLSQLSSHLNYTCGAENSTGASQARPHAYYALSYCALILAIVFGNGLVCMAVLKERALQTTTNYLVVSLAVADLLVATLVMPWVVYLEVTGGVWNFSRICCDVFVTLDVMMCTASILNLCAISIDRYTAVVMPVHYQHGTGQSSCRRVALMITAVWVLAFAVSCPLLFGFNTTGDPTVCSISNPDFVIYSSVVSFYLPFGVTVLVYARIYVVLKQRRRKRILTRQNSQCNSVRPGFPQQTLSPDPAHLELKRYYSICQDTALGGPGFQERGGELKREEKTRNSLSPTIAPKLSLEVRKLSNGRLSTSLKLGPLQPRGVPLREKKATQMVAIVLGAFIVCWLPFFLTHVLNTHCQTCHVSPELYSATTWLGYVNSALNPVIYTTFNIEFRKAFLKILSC
The Ki is the dissociation constant of the complex between target and ligand, obtained from inhibition or displacement. `CCCN(CCC)C1CCc2cc(O)c(O)cc2C1` (racemic) [CAS_62421-17-4]: affinity was put at a Ki of 0.68 nM.

In turn, `COc1ccc2c(c1O)-c1c3c(cc4c1[C@H](C2)N(C)CC4)OCO3` [(S)-11-methoxy-7-methyl-6,7,7a,8-tetrahydro-5H-benzo[g][1,3]dioxolo[4',5':4,5]benzo[1,2,3-de]quinolin-12-ol] registered an inhibitory constant (Ki) of 5200 nM. For `Cc1cc2c(cc1C)CC(N)CC2` (configuration not stated) [ADTN DIMETHYL 5,6] the value was 17 nM; for `CC(C)C[C@H]1C(=O)N2CCC[C@H]2[C@]2(O)O[C@](NC(=O)[C@@H]3C=C4c5cccc6[nH]c(Br)c(c56)C[C@H]4N(C)C3)(C(C)C)C(=O)N12` [Bromocriptine+ (GTP+)], 2.1 nM; for `CCCN1CCc2cc(F)cc3c2C1Cc1ccc(O)c(O)c1-3` (configuration not stated) [CAS_18426-20-5], 0.21 nM.

As to `NC1CCc2cc(OC(=O)c3ccccc3)c(OC(=O)c3ccccc3)cc2C1` (configuration not stated) [CAS_129816], the Ki is 160 nM. `CCCN(CCC)C1C=Cc2c(OC)cccc2C1C` (configuration not stated) [CAS_5311190] gave an inhibition constant (Ki) of 4.9 nM. This Ki lies about 33-fold lower than the previous one.

(Values after BindingDB's records for PubMed 8301582 (Neuroscience Research Centre, 1994).)
